Key:
[1] = biological target: GDP-bound HRAS wild-type protein (Homo sapiens, UniProt P01112); test: Binding to HRAS by surface plasmon resonance (SPR), Single Cycle Kinetics; conditions: KD ratio HRAS/KRAS, class symbols
[2] = biological target: GDP-bound NRAS wild-type protein (Homo sapiens, UniProt P01111); test: Binding to NRAS by surface plasmon resonance (SPR), Single Cycle Kinetics; conditions: KD ratio NRAS/KRAS, class symbols
Sequence of GDP-bound NRAS wild-type protein (P01111 whole entry): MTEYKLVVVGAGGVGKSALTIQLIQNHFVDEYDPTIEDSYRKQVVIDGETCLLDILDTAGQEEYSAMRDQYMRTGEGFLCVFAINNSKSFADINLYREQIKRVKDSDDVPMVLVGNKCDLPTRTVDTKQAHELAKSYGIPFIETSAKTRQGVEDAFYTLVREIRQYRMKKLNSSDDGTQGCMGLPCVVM

Sequence of GDP-bound HRAS wild-type protein (P01112 whole entry): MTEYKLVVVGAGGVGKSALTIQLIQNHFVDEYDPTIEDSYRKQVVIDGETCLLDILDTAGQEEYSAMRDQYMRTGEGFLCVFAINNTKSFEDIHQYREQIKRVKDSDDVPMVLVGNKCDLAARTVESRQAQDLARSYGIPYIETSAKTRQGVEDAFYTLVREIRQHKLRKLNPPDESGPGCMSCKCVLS

| SMILES | HRAS/KRAS (ratio of KD value with respect to GDP-bound HRAS wild-type protein to KD value with respect to KRAS) [1] | NRAS/KRAS (ratio of KD value with respect to GDP-bound NRAS wild-type protein to KD value with respect to KRAS) [2] |
| --- | --- | --- |
| CCC[C@H]1C(=O)N[C@@H]([C@@H](C)CC)C(=O)N(C2CC2)CC(=O)N(C)[C@H]2C/C=C\CCN(C2=O)[C@@H](Cc2ccc(C(F)(F)F)cc2)C(=O)N(C)CC(=O)N[C@@H](CCc2cc(F)c(C(F)(F)F)c(F)c2)C(=O)N2C[C@H](OCC)C[C@H]2C(=O)NC2(CC(C)(C)C2)C(=O)N(C)[C@@H](CC2CCC2)C(=O)N(C)[C@H](C(=O)N(C)C)CC(=O)N1C [PP2768] | A (a compound having 10 or more and less than 20 is denoted as A) | A (a compound having 10 or more and less than 20 is denoted as A) |
| CCO[C@@H]1C[C@H]2C(=O)NC3(CC(C)(C)C3)C(=O)N(C)[C@@H](CC3CCC3)C(=O)N(C)[C@H](C(=O)N(C)C)CC(=O)N(C)[C@@H](COC)C(=O)N[C@@H]([C@@H](C)CC)C(=O)N(C3CC3)CC(=O)N(C)[C@H]3C/C=C\CCN(C3=O)[C@@H](Cc3ccc(C(F)(F)F)cc3)C(=O)N(C)CC(=O)N[C@@H](CCc3cc(F)c(C(F)(F)F)c(F)c3)C(=O)N2C1 [PP2769] | A (a compound having 10 or more and less than 20 is denoted as A) | AA (a compound having 20 or more is denoted as AA) |
| CCC[C@H]1C(=O)N[C@@H]([C@@H](C)CC)C(=O)N(C2CC2)CC(=O)N(C)[C@H]2C/C=C\CCN(C2=O)[C@@H](Cc2ccc(C(F)(F)F)cc2)C(=O)N(C)CC(=O)N[C@@H](CCc2ccc(C(F)(F)F)c(OC)c2)C(=O)N2C[C@H](OCC)C[C@H]2C(=O)NC2(CC(C)(C)C2)C(=O)N(C)[C@@H](CC2CCC2)C(=O)N(C)[C@H](C(=O)N(C)C)CC(=O)N1C [PP2770] | A (a compound having 10 or more and less than 20 is denoted as A) | A (a compound having 10 or more and less than 20 is denoted as A) |
| CCO[C@@H]1C[C@H]2C(=O)NC3(CC(C)(C)C3)C(=O)N(C)[C@@H](CC3CCC3)C(=O)N(C)[C@H](C(=O)N(C)C)CC(=O)N(C)[C@@H](COC)C(=O)N[C@@H]([C@@H](C)CC)C(=O)N(C3CC3)CC(=O)N(C)[C@H]3C/C=C\CCN(C3=O)[C@@H](Cc3ccc(C(F)(F)F)cc3)C(=O)N(C)CC(=O)N[C@@H](CCc3ccc(C(F)(F)F)c(OC)c3)C(=O)N2C1 [PP2771] | A (a compound having 10 or more and less than 20 is denoted as A) | AA (a compound having 20 or more is denoted as AA) |
| CCO[C@@H]1C[C@H]2C(=O)NC3(CCC3)C(=O)N(C)[C@@H](CC(C)(C)C)C(=O)N(C)[C@H](C(=O)N3CCCC3)CC(=O)N(C)[C@@H](CC)C(=O)N[C@@H]([C@@H](C)CC)C(=O)N(C)CC(=O)N(C)[C@H]3C/C=C\CCN(C3=O)[C@@H](CC3CCCCC3)C(=O)N(C)CC(=O)N[C@@H](CCc3cc(F)c(C(F)(F)F)c(F)c3)C(=O)N2C1 [PP2772] | B (a compound having 3 or more and less than 10 is denoted as B) | B (a compound having 3 or more and less than 10 is denoted as B) |
| CCO[C@@H]1C[C@H]2C(=O)NC3(CC(C)(C)C3)C(=O)N(C)[C@@H](CC(C)(C)C)C(=O)N(C)[C@H](C(=O)N(C)C)CC(=O)N(C)[C@@H](C(C)C)C(=O)N[C@@H]([C@@H](C)CC)C(=O)N(C)CC(=O)N(C)[C@H]3C/C=C\CCN(C3=O)[C@@H](Cc3ccc(C(F)(F)F)cc3)C(=O)N(C)CC(=O)N[C@@H](CCc3ccc(C(F)(F)F)c(OC)c3)C(=O)N2C1 [PP2773] | B (a compound having 3 or more and less than 10 is denoted as B) | B (a compound having 3 or more and less than 10 is denoted as B) |
| CCC[C@H]1C(=O)N[C@@H]([C@@H](C)CC)C(=O)N(C)CC(=O)N(C)[C@H]2C/C=C\CCN(C2=O)[C@@H](Cc2ccc(C(F)(F)F)cc2)C(=O)N(C)CC(=O)N[C@@H](CCc2ccc(CC)c(Cl)c2)C(=O)N2C[C@H](OCC)C[C@H]2C(=O)NC2(CC(C)(C)C2)C(=O)N(C)[C@@H](C(CC)CC)C(=O)N(C)[C@H](C(=O)N(C)C)CC(=O)N1C [PP2777] | A (a compound having 10 or more and less than 20 is denoted as A) | AA (a compound having 20 or more is denoted as AA) |
| CCC[C@H]1C(=O)N[C@@H]([C@@H](C)CC)C(=O)N(C)CC(=O)N(C)[C@H]2C/C=C\CCN(C2=O)[C@@H](Cc2ccc(C)cc2)C(=O)N(C)CC(=O)N[C@@H](CCc2ccc(CC)c(Cl)c2)C(=O)N2C[C@H](OCC)C[C@H]2C(=O)NC2(CC(C)(C)C2)C(=O)N(C)[C@@H](C2CCCC2)C(=O)N(C)[C@H](C(=O)N(C)C)CC(=O)N1C [PP2778] | A (a compound having 10 or more and less than 20 is denoted as A) | A (a compound having 10 or more and less than 20 is denoted as A) |
| CCC[C@H]1C(=O)N[C@@H]([C@@H](C)CC)C(=O)N(C)CC(=O)N(C)[C@H]2C/C=C\CCN(C2=O)[C@@H](Cc2ccc(C)cc2)C(=O)N(C)CC(=O)N[C@@H](CCc2ccc(CC)c(Cl)c2)C(=O)N2C[C@H](OCC)C[C@H]2C(=O)NC2(CC(C)(C)C2)C(=O)N(C)[C@@H](C(CC)CC)C(=O)N(C)[C@H](C(=O)N(C)C)CC(=O)N1C [PP2779] | A (a compound having 10 or more and less than 20 is denoted as A) | A (a compound having 10 or more and less than 20 is denoted as A) |
| CCC[C@H]1C(=O)N[C@@H]([C@@H](C)CC)C(=O)N(C)CC(=O)N(C)[C@H]2C/C=C\CCN(C2=O)[C@@H](Cc2ccc(C(F)(F)F)cc2)C(=O)N(C)CC(=O)N[C@@H](CCc2cc(F)c(C(F)F)c(F)c2)C(=O)N2C[C@H](OCC)C[C@H]2C(=O)NC2(CC(C)(C)C2)C(=O)N(C)[C@@H](C2CCCC2)C(=O)N(C)[C@H](C(=O)N(C)C)CC(=O)N1C [PP2780] | A (a compound having 10 or more and less than 20 is denoted as A) | A (a compound having 10 or more and less than 20 is denoted as A) |
| CCC[C@H]1C(=O)N[C@@H]([C@@H](C)CC)C(=O)N(C)CC(=O)N(C)[C@H]2C/C=C\CCN(C2=O)[C@@H](Cc2ccc(C(F)(F)F)cc2)C(=O)N(C)CC(=O)N[C@@H](CCc2cc(F)c(C(F)F)c(F)c2)C(=O)N2C[C@H](OCC)C[C@H]2C(=O)NC2(CC(C)(C)C2)C(=O)N(C)[C@@H](C(CC)CC)C(=O)N(C)[C@H](C(=O)N(C)C)CC(=O)N1C [PP2781] | A (a compound having 10 or more and less than 20 is denoted as A) | AA (a compound having 20 or more is denoted as AA) |
| CCC[C@H]1C(=O)N[C@@H]([C@@H](C)CC)C(=O)N(C)CC(=O)N(C)[C@H]2C/C=C\CCN(C2=O)[C@@H](Cc2ccc(C)cc2)C(=O)N(C)CC(=O)N[C@@H](CCc2cc(F)c(C(F)F)c(F)c2)C(=O)N2C[C@H](OCC)C[C@H]2C(=O)NC2(CC(C)(C)C2)C(=O)N(C)[C@@H](C2CCCC2)C(=O)N(C)[C@H](C(=O)N(C)C)CC(=O)N1C [PP2782] | A (a compound having 10 or more and less than 20 is denoted as A) | A (a compound having 10 or more and less than 20 is denoted as A) |
| CCC[C@H]1C(=O)N[C@@H]([C@@H](C)CC)C(=O)N(C)CC(=O)N(C)[C@H]2C/C=C\CCN(C2=O)[C@@H](Cc2ccc(C(F)(F)F)cc2)C(=O)N(C)CC(=O)N[C@@H](CCc2ccc(Cl)c(C(F)(F)F)c2)C(=O)N2C[C@H](OCC)C[C@H]2C(=O)NC2(CC(C)(C)C2)C(=O)N(C)[C@@H](C2CCCC2)C(=O)N(C)[C@H](C(=O)N(C)C)CC(=O)N1C [PP2784] | A (a compound having 10 or more and less than 20 is denoted as A) | A (a compound having 10 or more and less than 20 is denoted as A) |
| CCC[C@H]1C(=O)N[C@@H]([C@@H](C)CC)C(=O)N(C)CC(=O)N(C)[C@H]2C/C=C\CCN(C2=O)[C@@H](Cc2ccc(C(F)(F)F)cc2)C(=O)N(C)CC(=O)N[C@@H](CCc2ccc(Cl)c(C(F)(F)F)c2)C(=O)N2C[C@H](OCC)C[C@H]2C(=O)NC2(CC(C)(C)C2)C(=O)N(C)[C@@H](C(CC)CC)C(=O)N(C)[C@H](C(=O)N(C)C)CC(=O)N1C [PP2785] | A (a compound having 10 or more and less than 20 is denoted as A) | AA (a compound having 20 or more is denoted as AA) |
| CCC[C@H]1C(=O)N[C@@H]([C@@H](C)CC)C(=O)N(C)CC(=O)N(C)[C@H]2C/C=C\CCN(C2=O)[C@@H](Cc2ccc(C)cc2)C(=O)N(C)CC(=O)N[C@@H](CCc2ccc(Cl)c(C(F)(F)F)c2)C(=O)N2C[C@H](OCC)C[C@H]2C(=O)NC2(CC(C)(C)C2)C(=O)N(C)[C@@H](C2CCCC2)C(=O)N(C)[C@H](C(=O)N(C)C)CC(=O)N1C [PP2786] | A (a compound having 10 or more and less than 20 is denoted as A) | A (a compound having 10 or more and less than 20 is denoted as A) |

— US20250230193A1, “CYCLIC COMPOUND HAVING SELECTIVE KRAS INHIBITORY EFFECT ON HRAS AND NRAS” (CHUGAI SEIYAKU KABUSHIKI KAISHA, priority 2022, published 2025)
